Broadly, the IC50 is the concentration at which inhibition is half-maximal. By Ki is commonly meant the dissociation constant of the complex between target and ligand, obtained from inhibition or displacement.

Series [1] can be described thus: DRUGMATRIX: Sodium/nucleoside co-transporter radioligand binding (ligand: nitrobenzylthioinosine). The note with it: Not Active = under 50% inhibition at 10 µM. The series is classed as cell membranes, Cavia porcellus, Dunkin-Hartley, Cerebral cortex, Membrane.
The nature of series [2]: DRUGMATRIX: Sigma2 radioligand binding (ligand: [3H] Ifenprodil). It counts as cell membranes, Rattus norvegicus, Wistar, Brain, Membrane. Particulars: Not Active = under 50% inhibition at 10 µM.
The next series has as its target Insulin receptor (Rattus norvegicus, UniProt P15127). The series is classed as cell membranes, Wistar, Liver, Membrane. Also: in other assays of this panel Not Active means under 50% inhibition at 10 µM.
The next series has as its target Mu-type opioid receptor (Homo sapiens, UniProt P35372). In words: DRUGMATRIX: Opiate mu (OP3, MOP) radioligand binding (ligand: [3H] Diprenorphine). It counts as cell membranes, CHO-K1, Membrane. The note with it: cho-k1; Not Active = under 50% inhibition at 10 µM.
For series [3], the target named is T1, Angiotensin-converting enzyme (Oryctolagus cuniculus, UniProt P12822).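 Also: enzymatic inhibition of angiotensin-converting enzyme measured with FAPGG as the substrate; in other assays of this panel Not Active means under 50% inhibition at 10 µM.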
T1 sequence (P12822 whole entry): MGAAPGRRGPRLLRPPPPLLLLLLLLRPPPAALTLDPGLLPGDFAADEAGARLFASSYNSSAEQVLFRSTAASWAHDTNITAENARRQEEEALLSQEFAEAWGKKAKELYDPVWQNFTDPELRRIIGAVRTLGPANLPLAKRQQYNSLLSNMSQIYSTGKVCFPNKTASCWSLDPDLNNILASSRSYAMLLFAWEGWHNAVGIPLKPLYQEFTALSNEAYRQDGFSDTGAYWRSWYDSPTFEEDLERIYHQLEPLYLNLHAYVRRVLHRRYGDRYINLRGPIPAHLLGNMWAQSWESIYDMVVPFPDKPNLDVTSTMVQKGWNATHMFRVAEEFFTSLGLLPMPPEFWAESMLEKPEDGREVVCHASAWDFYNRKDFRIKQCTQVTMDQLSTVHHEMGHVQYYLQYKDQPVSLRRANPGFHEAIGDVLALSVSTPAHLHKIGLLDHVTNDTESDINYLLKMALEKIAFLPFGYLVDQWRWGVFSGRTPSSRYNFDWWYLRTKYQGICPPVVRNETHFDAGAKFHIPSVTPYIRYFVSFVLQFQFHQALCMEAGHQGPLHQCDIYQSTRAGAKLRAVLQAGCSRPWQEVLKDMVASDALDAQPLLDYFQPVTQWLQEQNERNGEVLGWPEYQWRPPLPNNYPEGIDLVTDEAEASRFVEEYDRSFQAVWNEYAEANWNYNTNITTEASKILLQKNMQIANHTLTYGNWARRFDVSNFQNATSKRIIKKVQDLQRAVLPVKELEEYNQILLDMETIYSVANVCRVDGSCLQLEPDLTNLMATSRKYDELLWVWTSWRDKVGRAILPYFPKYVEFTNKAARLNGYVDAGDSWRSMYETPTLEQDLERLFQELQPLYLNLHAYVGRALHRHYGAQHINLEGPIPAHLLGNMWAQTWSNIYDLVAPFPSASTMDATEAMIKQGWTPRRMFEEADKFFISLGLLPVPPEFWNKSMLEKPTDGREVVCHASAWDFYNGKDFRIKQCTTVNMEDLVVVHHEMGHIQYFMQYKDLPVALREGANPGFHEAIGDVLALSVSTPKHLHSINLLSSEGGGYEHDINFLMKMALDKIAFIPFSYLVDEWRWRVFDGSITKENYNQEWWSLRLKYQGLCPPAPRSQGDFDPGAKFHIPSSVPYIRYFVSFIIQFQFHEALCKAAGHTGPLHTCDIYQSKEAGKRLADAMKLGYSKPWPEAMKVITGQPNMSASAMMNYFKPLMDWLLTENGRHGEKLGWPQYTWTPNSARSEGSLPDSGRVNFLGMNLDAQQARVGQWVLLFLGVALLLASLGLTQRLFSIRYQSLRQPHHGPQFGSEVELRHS
It counts as tissue-based, Lung.

The target of series [4] is Tyrosine-protein kinase Fyn (Homo sapiens, UniProt P06241). The series can be described thus: biochemical. The series is classed as cell-based, Insect cells. Particulars: insect cells.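 Also: enzymatic inhibition of Fyn kinase activity measured with Poly(Glu:Tyr) as the phosphorylation substrate; in other assays of this panel Not Active means under 50% inhibition at 10 µM.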
Sequence of Tyrosine-protein kinase Fyn (P06241 whole entry): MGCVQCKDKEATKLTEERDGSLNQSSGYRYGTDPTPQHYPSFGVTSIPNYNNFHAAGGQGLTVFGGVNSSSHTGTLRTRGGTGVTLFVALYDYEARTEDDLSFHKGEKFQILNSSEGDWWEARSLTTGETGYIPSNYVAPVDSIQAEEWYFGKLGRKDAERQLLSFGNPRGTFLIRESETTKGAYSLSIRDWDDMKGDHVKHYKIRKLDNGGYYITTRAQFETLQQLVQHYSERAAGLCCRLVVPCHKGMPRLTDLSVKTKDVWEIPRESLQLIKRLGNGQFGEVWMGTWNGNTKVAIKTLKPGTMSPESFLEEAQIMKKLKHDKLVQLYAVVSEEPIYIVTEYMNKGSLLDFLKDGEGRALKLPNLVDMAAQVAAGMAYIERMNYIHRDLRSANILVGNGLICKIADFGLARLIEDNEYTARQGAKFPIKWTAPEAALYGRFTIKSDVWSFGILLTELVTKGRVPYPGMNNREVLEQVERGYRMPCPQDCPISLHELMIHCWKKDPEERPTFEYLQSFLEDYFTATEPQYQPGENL
In another series the target is T2, Cytochrome P450 1A2 (Homo sapiens, UniProt P05177). Also: in other assays of this panel Not Active means under 50% inhibition at 10 µM.
T2 sequence (P05177 whole entry): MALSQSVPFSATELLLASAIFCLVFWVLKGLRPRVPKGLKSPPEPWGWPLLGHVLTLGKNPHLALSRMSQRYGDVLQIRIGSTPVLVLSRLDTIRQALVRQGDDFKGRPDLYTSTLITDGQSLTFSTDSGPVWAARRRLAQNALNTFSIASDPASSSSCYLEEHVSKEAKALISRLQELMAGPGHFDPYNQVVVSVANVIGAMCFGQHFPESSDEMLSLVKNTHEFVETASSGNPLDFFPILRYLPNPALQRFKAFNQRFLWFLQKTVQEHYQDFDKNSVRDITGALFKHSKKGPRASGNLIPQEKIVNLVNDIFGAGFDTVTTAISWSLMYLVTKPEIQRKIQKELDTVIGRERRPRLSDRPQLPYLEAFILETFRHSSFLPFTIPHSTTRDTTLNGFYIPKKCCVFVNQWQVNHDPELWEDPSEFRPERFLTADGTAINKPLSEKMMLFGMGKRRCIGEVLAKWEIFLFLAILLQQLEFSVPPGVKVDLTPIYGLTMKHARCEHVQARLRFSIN
Particulars: bti-tn-5b1-4.

Sequence of Mu-type opioid receptor (P35372 whole entry): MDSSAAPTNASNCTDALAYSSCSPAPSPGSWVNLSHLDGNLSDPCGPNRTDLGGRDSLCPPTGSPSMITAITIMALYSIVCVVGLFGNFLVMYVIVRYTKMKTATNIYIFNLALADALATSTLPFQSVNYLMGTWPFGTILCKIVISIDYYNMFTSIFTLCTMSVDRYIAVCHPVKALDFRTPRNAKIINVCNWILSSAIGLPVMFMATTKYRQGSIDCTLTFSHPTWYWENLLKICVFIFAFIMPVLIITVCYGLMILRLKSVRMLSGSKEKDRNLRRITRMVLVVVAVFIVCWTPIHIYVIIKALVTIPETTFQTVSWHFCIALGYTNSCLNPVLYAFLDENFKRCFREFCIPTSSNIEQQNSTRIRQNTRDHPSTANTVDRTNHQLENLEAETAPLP
Sequence of Insulin receptor (P15127 27-759 limits assumed): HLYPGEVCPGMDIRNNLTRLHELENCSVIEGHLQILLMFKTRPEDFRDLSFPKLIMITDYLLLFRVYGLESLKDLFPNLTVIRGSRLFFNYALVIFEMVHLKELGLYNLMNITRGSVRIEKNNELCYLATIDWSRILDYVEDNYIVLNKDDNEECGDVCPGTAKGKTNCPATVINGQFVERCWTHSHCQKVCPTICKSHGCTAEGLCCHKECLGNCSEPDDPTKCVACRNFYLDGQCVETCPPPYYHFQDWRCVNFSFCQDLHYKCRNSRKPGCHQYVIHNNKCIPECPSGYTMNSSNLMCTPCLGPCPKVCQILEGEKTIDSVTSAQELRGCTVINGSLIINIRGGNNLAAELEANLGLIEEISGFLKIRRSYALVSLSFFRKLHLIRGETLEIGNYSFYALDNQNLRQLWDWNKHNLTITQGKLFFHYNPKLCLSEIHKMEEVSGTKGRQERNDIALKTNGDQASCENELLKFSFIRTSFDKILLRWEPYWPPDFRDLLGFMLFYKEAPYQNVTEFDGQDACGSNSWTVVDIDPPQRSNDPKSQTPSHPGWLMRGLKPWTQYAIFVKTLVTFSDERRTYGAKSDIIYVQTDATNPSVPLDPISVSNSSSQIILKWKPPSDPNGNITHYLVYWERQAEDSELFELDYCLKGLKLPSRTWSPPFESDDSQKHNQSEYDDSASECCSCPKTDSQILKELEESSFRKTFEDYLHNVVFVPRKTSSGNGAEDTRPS
Sequence of Insulin receptor (P15127 764-1383 limits assumed): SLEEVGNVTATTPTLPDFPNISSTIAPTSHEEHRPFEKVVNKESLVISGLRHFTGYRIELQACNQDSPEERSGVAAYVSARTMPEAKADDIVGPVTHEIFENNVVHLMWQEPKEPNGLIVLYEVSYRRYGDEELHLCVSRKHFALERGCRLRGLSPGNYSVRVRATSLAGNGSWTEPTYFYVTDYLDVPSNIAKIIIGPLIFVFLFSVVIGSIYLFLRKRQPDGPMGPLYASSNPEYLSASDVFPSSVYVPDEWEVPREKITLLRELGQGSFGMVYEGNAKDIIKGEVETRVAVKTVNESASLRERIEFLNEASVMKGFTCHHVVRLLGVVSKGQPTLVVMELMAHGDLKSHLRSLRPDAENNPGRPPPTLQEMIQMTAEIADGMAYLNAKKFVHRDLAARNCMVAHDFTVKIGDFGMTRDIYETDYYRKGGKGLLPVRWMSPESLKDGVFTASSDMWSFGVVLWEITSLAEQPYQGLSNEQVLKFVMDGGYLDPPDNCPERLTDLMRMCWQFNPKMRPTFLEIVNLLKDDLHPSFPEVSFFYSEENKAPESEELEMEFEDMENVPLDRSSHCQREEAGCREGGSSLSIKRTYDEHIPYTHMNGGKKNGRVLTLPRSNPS

For `CN1CCC(=C2c3ccccc3CC(=O)c3sccc32)CC1` [KETOTIFEN], the IC50 result (in series [1]; in series [2]; at Insulin receptor; at Mu-type opioid receptor; in series [3]; in series [4]) was “Not Active” each time. At Cytochrome P450 1A2, the IC50 result is “Not Active”. Besides, the Ki result (in series [1]; in series [2]; on Cytochrome P450 1A2) was “Not Active” each time.

Take `C[N+](C)(C)C[C@H](O)CC(=O)[O-]` [LEVOCARNITINE]: the IC50 entry (in series [1]; in series [2]; against Insulin receptor; at Mu-type opioid receptor; in series [3]; in series [4]) was “Not Active” throughout. Moreover, the IC50 entry against Cytochrome P450 1A2 is “Not Active”. For the same molecule, the Ki entry (in series [1]; in series [2]; on Cytochrome P450 1A2) was “Not Active” each time.

As to `C[C@H]1COc2c(N3CCN(C)CC3)c(F)cc3c(=O)c(C(=O)O)cn1c23.C[C@H]1COc2c(N3CCN(C)CC3)c(F)cc3c(=O)c(C(=O)O)cn1c23.O` [LEVOFLOXACIN], the IC50 result (in series [1]; in series [2]; against Insulin receptor; at Mu-type opioid receptor; in series [3]; in series [4]) was “Not Active” each time. For the same molecule, the IC50 entry on Cytochrome P450 1A2 was “Not Active”. The Ki result (in series [1]; in series [2]; at Cytochrome P450 1A2) was “Not Active” in each case.

Regarding `CCn1cc(C(=O)O)c(=O)c2cc(F)c(N3CCNC(C)C3)c(F)c21` (stereo not given) [LOMEFLOXACIN], the IC50 result (in series [1]; in series [2]; at Insulin receptor; at Mu-type opioid receptor; in series [3]; in series [4]) was “Not Active” in each case. Further, the IC50 entry against Cytochrome P450 1A2 is listed as “Not Active”. Further, the Ki result (in series [1]; in series [2]; on Cytochrome P450 1A2) was “Not Active” each time.

As to `CN1CCCC(CN2c3ccccc3Sc3ccccc32)C1` (stereo not given) [MEPAZINE], the IC50 result in series [1] was “Not Active”; in series [2] (read-out: IC50), 0.631 µM; against Insulin receptor it was “Not Active”; on Mu-type opioid receptor, “Not Active”; in series [3], “Not Active”; in series [4] it was “Not Active”. For the same molecule, on Cytochrome P450 1A2, the IC50 entry is on record as “Not Active”. The Ki entry in series [1] is “Not Active”; in series [2] (read-out: Ki) it was 0.388 µM; at Cytochrome P450 1A2, “Not Active”.

Take `Cc1cccc(C)c1NC(=O)C1CCCCN1C` (stereo not given) [MEPIVACAINE]: the half-maximal inhibitory concentration (IC50) entry (in series [1]; in series [2]; against Insulin receptor; at Mu-type opioid receptor; in series [3]; in series [4]) was “Not Active” in each case. In addition, the IC50 result on Cytochrome P450 1A2 is listed as “Not Active”. The Ki result (in series [1]; in series [2]; on Cytochrome P450 1A2) was “Not Active” throughout.

With `CN(C)C(=O)Oc1cccc([N+](C)(C)C)c1.[Br-]` [NEOSTIGMINE BROMIDE], the IC50 result (in series [1]; in series [2]; against Insulin receptor; at Mu-type opioid receptor; in series [3]; in series [4]) was “Not Active” each time. Besides, the IC50 entry at Cytochrome P450 1A2 is “Not Active”. Moreover, the Ki result (in series [1]; in series [2]; at Cytochrome P450 1A2) was “Not Active” throughout.

Consider `NC(=O)c1cccnc1` [NIACINAMIDE], for which the IC50 entry (in series [1]; in series [2]; on Insulin receptor; on Mu-type opioid receptor; in series [3]; in series [4]) was “Not Active” throughout. In addition, the IC50 result against Cytochrome P450 1A2 is recorded as “Not Active”. The Ki result (in series [1]; in series [2]; at Cytochrome P450 1A2) was “Not Active” in each case.

In the case of `CS(=O)(=O)Nc1ccc([N+](=O)[O-])cc1Oc1ccccc1` [NIMESULIDE], the IC50 result (in series [1]; in series [2]; against Insulin receptor; at Mu-type opioid receptor; in series [3]; in series [4]) was “Not Active” each time. On Cytochrome P450 1A2, the IC50 result is on record as “Not Active”. In addition, the Ki result (in series [1]; in series [2]; on Cytochrome P450 1A2) was “Not Active” in each case.

Take `CN1C(=O)CN=C(c2ccccc2)c2cc([N+](=O)[O-])ccc21` [NIMETAZEPAM]: the IC50 entry (in series [1]; in series [2]; on Insulin receptor; at Mu-type opioid receptor; in series [3]; in series [4]) was “Not Active” in each case. Besides, the IC50 result on Cytochrome P450 1A2 is recorded as “Not Active”. Also, the Ki entry (in series [1]; in series [2]; on Cytochrome P450 1A2) was “Not Active” throughout.

Consider `COc1ccc2c(c1OC)C(=O)O[C@@H]2[C@H]1c2c(cc3c(c2OC)OCO3)CCN1C` [NOSCAPINE], for which the IC50 result (in series [1]; in series [2]; on Insulin receptor; on Mu-type opioid receptor; in series [3]; in series [4]) was “Not Active” each time. For the same molecule, the IC50 result against Cytochrome P450 1A2 is given as “Not Active”. The Ki entry (in series [1]; in series [2]; at Cytochrome P450 1A2) was “Not Active” in each case.

For `NC(=O)N1c2ccccc2CC(=O)c2ccccc21` [OXCARBAZEPINE], the IC50 entry (in series [1]; in series [2]; at Insulin receptor; at Mu-type opioid receptor; in series [3]; in series [4]) was “Not Active” each time. For the same molecule, the IC50 entry against Cytochrome P450 1A2 is reported as “Not Active”. The inhibitory constant (Ki) result (in series [1]; in series [2]; on Cytochrome P450 1A2) was “Not Active” in each case.

On to `COc1ccnc(C[S+]([O-])c2nc3ccc(OC(F)F)cc3[nH]2)c1OC` (stereo not given) [PANTOPRAZOLE], for which the IC50 entry (in series [1]; in series [2]; on Insulin receptor; on Mu-type opioid receptor; in series [3]; in series [4]) was “Not Active” each time. For the same molecule, the IC50 entry on Cytochrome P450 1A2 is recorded as “Not Active”. In addition, the Ki result (in series [1]; in series [2]; at Cytochrome P450 1A2) was “Not Active” each time.

As for `N=C(N)c1ccc(OCCCCCOc2ccc(C(=N)N)cc2)cc1` [PENTAMIDINE], the IC50 result (in series [1]; in series [2]; against Insulin receptor; on Mu-type opioid receptor; in series [3]; in series [4]) was “Not Active” in each case. The IC50 result at Cytochrome P450 1A2 is reported as “Not Active”. The Ki entry (in series [1]; in series [2]; on Cytochrome P450 1A2) was “Not Active” each time.

For `NNCCc1ccccc1` [PHENELZINE], the IC50 entry (in series [1]; in series [2]; against Insulin receptor; on Mu-type opioid receptor; in series [3]; in series [4]) was “Not Active” in each case. Also, the IC50 result against Cytochrome P450 1A2 is given as “Not Active”. Also, the Ki entry (in series [1]; in series [2]; on Cytochrome P450 1A2) was “Not Active” each time.

The values are drawn from ChEMBL document CHEMBL1909046, “DrugMatrix in vitro pharmacology data”.
